Results: the NIST ThermoML archive (doi:10.1016/j.fluid.2011.11.022)

Test: wn = mass fraction of the nth substance listed
Settings: Liquid, w2 = 0.5; for mass density: Buoyancy - hydrostatic balance; for viscosity: Falling or rolling sphere viscometry

OCCOCCO [diethylene glycol] + OCCO
Settings | mass density [kg/m3] | viscosity [mPa·s]
298.15 K, 98 kPa | 1112.21 | 21.12
298.15 K, 49030 kPa | 1135.06 | 28.23
298.15 K, 98060 kPa | 1151.37 | 36.95
298.15 K, 196130 kPa | 1178.94 | 60.47
322.33 K, 49030 kPa | 1121.67 | 10.74
322.34 K, 98 kPa | 1097.38 | 8.316
332.21 K, 196130 kPa | 1162.18 | 20.76
332.33 K, 98060 kPa | 1132.91 | 13.57
353.8 K, 196130 kPa | 1150.15 | 7.683
353.83 K, 98 kPa | 1075.19 | 3.488
353.87 K, 49030 kPa | 1101.62 | 4.407
354.1 K, 98060 kPa | 1119.74 | 5.334
392.87 K, 98 kPa | 1043.14 | 1.641
393.06 K, 49030 kPa | 1072.66 | 1.986
393.3 K, 98060 kPa | 1093.17 | 2.36
393.6 K, 196130 kPa | 1126.12 | 3.232
435.93 K, 49030 kPa | 1035.82 | 1.09
435.98 K, 98060 kPa | 1060.12 | 1.293
436.08 K, 98 kPa | 1001.82 | 0.885
436.13 K, 196130 kPa | 1097.25 | 1.731
462.52 K, 98060 kPa | 1037.39 | 0.989
462.54 K, 196130 kPa | 1077.67 | 1.313
462.73 K, 49030 kPa | 1011.05 | 0.791
462.75 K, 98 kPa | 973.24 | 0.671

OCCOCCOCCO [triethylene glycol] + OCCO
Settings | mass density [kg/m3] | viscosity [mPa·s]
298.13 K, 98 kPa | 1115.1 | 26.24
298.15 K, 49030 kPa | 1136.47 | 35.89
298.15 K, 98060 kPa | 1152.73 | 48.05
298.15 K, 196130 kPa | 1180.8 | 82.26
322 K, 196130 kPa | 1169.4 | 27.05
322.25 K, 98060 kPa | 1139.05 | 17.16
322.32 K, 49030 kPa | 1121.83 | 13.34
322.36 K, 98 kPa | 1101.75 | 10.13
355.34 K, 98 kPa | 1079 | 3.999
355.56 K, 49030 kPa | 1099.04 | 5.082
355.67 K, 98060 kPa | 1118.11 | 6.302
355.76 K, 196130 kPa | 1151.43 | 9.251
392.2 K, 98 kPa | 1047.37 | 1.946
392.33 K, 49030 kPa | 1070.25 | 2.418
392.39 K, 98060 kPa | 1092.45 | 2.907
392.77 K, 196130 kPa | 1129.25 | 4.045
434.54 K, 98060 kPa | 1059.58 | 1.581
434.56 K, 49030 kPa | 1032.55 | 1.33
434.59 K, 98 kPa | 1002.88 | 1.058
434.7 K, 196130 kPa | 1101.01 | 2.158
462.27 K, 196130 kPa | 1080.63 | 1.616
462.4 K, 49030 kPa | 1004.97 | 0.996
462.47 K, 98060 kPa | 1035.79 | 1.196
462.61 K, 98 kPa | 968.72 | 0.705

OCCOCCOCCO [triethylene glycol] + OCCOCCO
Settings | mass density [kg/m3] | viscosity [mPa·s]
298.15 K, 98 kPa | 1116.28 | 32.4
298.15 K, 49030 kPa | 1140.16 | 48.05
298.15 K, 98060 kPa | 1157.54 | 68.97
298.15 K, 196130 kPa | 1186.23 | 134.9
322.18 K, 196130 kPa | 1172.01 | 39.19
322.32 K, 98060 kPa | 1143.4 | 22.33
322.38 K, 49030 kPa | 1125.8 | 16.39
322.43 K, 98 kPa | 1104.5 | 11.71
355.15 K, 98 kPa | 1083.98 | 4.468
355.59 K, 49030 kPa | 1103.74 | 5.935
355.77 K, 98060 kPa | 1122.4 | 7.663
355.95 K, 196130 kPa | 1151.5 | 12.1
391.02 K, 98 kPa | 1055.33 | 2.179
391.29 K, 49030 kPa | 1076.96 | 2.772
391.39 K, 98060 kPa | 1098.19 | 3.484
391.57 K, 196130 kPa | 1129.2 | 5.188
432.13 K, 98 kPa | 1014.59 | 1.172
432.65 K, 98060 kPa | 1067.76 | 1.884
432.68 K, 196130 kPa | 1102.63 | 2.658
432.76 K, 49030 kPa | 1041.87 | 1.51
472.77 K, 196130 kPa | 1075.84 | 1.747
472.82 K, 98060 kPa | 1035.69 | 1.236
473.06 K, 49030 kPa | 1003.66 | 1.008
473.1 K, 98 kPa | 965.58 | 0.716
